The structures appear in SMILES notation.

This is an account of results in patent publication US4812409A, “Hydrolyzable fluorescent substrates and analytical determinations using same” (Eastman Kodak Company, priority 1986, dated 1989).

For one assay, the system named is diacetinase. The assay is described as follows: Solution determination of an esterase enzyme. The class given is biochemical. The following applies: pH 7.5, 25° C.; for Relative Fluorescence, Test Cell: ex 540 nm, em 620 nm. How it is done: A buffered solution of the substrate was prepared as follows. The substrate in N,N-dimethylformamide (16 mg/ml solvent) was added to 500 μl TRITON X-100 surfactant, and the resulting solution was added slowly to 25 ml potassium phosphate buffer (0.05 molar, pH 7.5) with stirring. Three milliliters of the buffered solution containing the substrate was placed in each of two quartz cells. To one cell was added 10 μl of a solution containing diacetinase (0.218 I.U. diacetinase per μl of potassium phosphate buffer, pH 7.5). The second cell was the Control. The relative fluorescence of each cell solution was measured at various times with a commercially available Perkin-Elmer fluorometer (excitation, 540 nm, maximum emission, 620 nm) at pH 7.5 and 25° C.

The subject of a further assay is white blood cells. The assay is described as follows: Determination of esterase activity in white blood cells. The class given is cell-based. The conditions noted are these: pH 7.5, ex 540 nm, em 620 nm. How it is done:
Leucocyte-rich layers (buffy coats) were purified from blood of healthy adult donors (taken in ACD tubes*) by adding 1.5 ml of Dextran T70 (6% in balanced salt solution), purchased from Pharmacia Fine Chemical (Piscataway, N.J., U.S.A.), to a 10 ml tube of blood. The tubes were allowed to set for one hour, then the plasma layer was transferred to sterile 15 ml centrifuge tubes, and the tubes were filled up to 7.5 ml with PBS solution (8.5 g sodium chloride in 0.05 molar potassium phosphate buffer, pH 7.5). The tubes were centrifuged at 1000 RPM for 10 minutes. The resulting cell pellet was resuspended in 10 ml lysing solution [0.83 g ammonium chloride, 0.1 g sodium bicarbonate and 0.003 g (ethylenedinitrilo)tetraacetic acid disodium salt in 100 ml of water, pH 7.2], and the tubes were allowed to set until the solution cleared. The tubes were again centrifuged, and the pellet was washed and resuspended in PBS. Cells were counted and adjusted to about 10^6 cells/ml.
Three milliliters of various concentrations of white blood cells in potassium phosphate buffer (0.05 molar, pH 7.5) were mixed with 10 μl of the substrate of Example 3 ([…]), and the relative fluorescence was measured at an excitation wavelength of 540 nm and a maximum emission wavelength of 620 nm.

Assay [1] has as its system carboxy esterase (Esterase, Type II). Put plainly: Determination of esterase activity in a dry analytical element. Type of assay: biochemical. The conditions noted are these: filter paper element; 10 μl of 10 μg/ml esterase, pH 7.5; 1 minute incubation at 37° C. How it is done: A strip of Whatman No. 2 filter paper (VWR Scientific Co., Rochester, N.Y., U.S.A.) was immersed in a solution of the substrate in methanol (3 mg in 0.5 ml). The paper was then allowed to dry at 37° C. for two hours.
A carboxy esterase (Esterase, Type II, 100 I.U./mg protein from Sigma Chemical Co., St. Louis, Mo., U.S.A.) was dissolved in 0.05 molar potassium phosphate buffer (pH 7.5), 10 μg/ml of buffer. A sample (10 μl) of this solution was applied to the filter paper and the sample came into contact with the substrate therein. A Control solution containing only buffer was applied to a separate area of the element. After 1 minute incubation at 37° C., the element was visually examined.

In the case of `CC(=O)Oc1ccc2c3c(cccc13)C(=O)C=C2` [Example 3], the “Relative Fluorescence, Test Cell” value amounted to 134 with diacetinase (0 min); 142 with diacetinase (0.5 min); 150 with diacetinase (1.0 min); 161 with diacetinase (3.0 min); 175 in the assay on diacetinase (5.0 min); 202 in the assay with diacetinase (7.0 min). Further, the “Relative Fluorescence, Test Cell” value is 238 with diacetinase (10.0 min) and 266 in the assay on diacetinase (15.0 min). In the assay with diacetinase, the “Generation of fluorescence in the cell containing the esterase enzyme (in words)” value is “rapid generation of fluorescence”. The “Relative Fluorescence” value with white blood cells (Sample 2, Cell Conc/μl 4.92 × 10^3, 0 Min) came out at 28.2; in the assay with white blood cells (Sample 2, Cell Conc/μl 4.92 × 10^3, 10 Min) it was 37.1; in the assay on white blood cells (Sample 2, Cell Conc/μl 4.92 × 10^3, 15 Min), 42.6; in the assay on white blood cells (Sample 2, Cell Conc/μl 4.92 × 10^3, 30 Min), 60.4; in the assay on white blood cells (Sample 3, Cell Conc/μl 4.92 × 10^4, 0 Min), 23.2; with white blood cells (Sample 3, Cell Conc/μl 4.92 × 10^4, 10 Min) it was 41.7. For the same compound, the “Relative Fluorescence” value in the assay on white blood cells (Sample 3, Cell Conc/μl 4.92 × 10^4, 15 Min) was found to be 48.8; with white blood cells (Sample 3, Cell Conc/μl 4.92 × 10^4, 30 Min), 70.3; in the assay on white blood cells (Sample 4, Cell Conc/μl 4.92 × 10^5, 0 Min) it was 25.6; with white blood cells (Sample 4, Cell Conc/μl 4.92 × 10^5, 10 Min) it was 69.0; with white blood cells (Sample 4, Cell Conc/μl 4.92 × 10^5, 15 Min), 85.0; in the assay on white blood cells (Sample 4, Cell Conc/μl 4.92 × 10^5, 30 Min) it was 124.0. Further, the “Colour of element area contacted with esterase enzyme (visual examination)” value in assay [1] is recorded as “bright orange”.
